Read-outs that look alike come from different tables or passages of the source.
Experiments:
[1] = Absorbance and fluorescence measurements (excitation maximum, emission maximum, quantum yield vs coumarin 151); assay type: physicochemical; design: key to Quantum Yield: fraction relative to coumarin 151 in ethanol standard; settings: measurements run with methanol; for λex: absorbance/excitation maximum; for Quantum Yield: coumarin 151 in ethanol as standard; for Quantum Yield / λem: 2.5 mm slit width; for λem: emission maximum
Description: All reagents and solvents were acquired from commercially available suppliers and used without further purification. Methanol(dried on molecular sieves-Acroseal) was obtained from Acros. […] 1H and 13C NMR spectra were obtained on a Bruker NMR spectrometer at 500/400 and 125/100 MHz respectively. The data is reported as follows: chemical shift in ppm (δ), multiplicity (s=singlet, d=doublet, dd=doublet of doublets, t=triplet, dt=doublet of triplets, td=triplet of doublets, q=quartet, p=pentet, m=multiplet). Coupling constants are reported in Hertz (Hz) and were automatically generated using known NMR analyzer software (MestReNova), these were then subsequently curated. High-resolution mass spectra were obtained using the positive ESI method for all the compounds, obtained in an Ion Cyclotron Resonance (ICR) spectrometer. Absorbance spectra were obtained using an Agilent 8453 UV-visible spectroscopy system. Fluorescence was measured on a Varian (Agilent) Cary Eclipse Fluorimeter. Quantum yield measurements were calculated and reported using coumarin 151 in ethanol as a standard.^1 Fluorescence scans were obtained using a 2.5 mm slit width unless otherwise noted.
The fluorescence was also measured in different solvents to examine the solvent effects.

[2] = previously published amine, comparison in Example I; cited from earlier work

λex [1] [nm]	Quantum Yield [1]	λem [1] [nm]	Compound	Quantum Yield [2]	emission maxima [2] [nm]	excitation maxima [2] [nm]
361	0.05	417	COc1cccc(-c2nc3c(nc4ccccn43)c3cc(OC)ccc23)c1 [Compound 16a, 2-methoxy-5-(3-methoxyphenyl)pyrido[2′,1′:2,3]imidazo[4,5-c]isoquinoline]	0.02	505	292
486	0.27	643	COc1ccc(/C=C/c2nc3nc(-c4ccc(OC)cc4)c(NC(C)(C)C)n3nc2C)cc1 [Compound 44, (E)-N-(tert-butyl)-6-(4-methoxyphenyl)-3-(4-methoxystyryl)-2-methylimidazo[1,2-b][1,2,4]triazin-7-amine]	–	–	–
461	0.19	638	COc1cc(/C=C/c2nc3nc(-c4cc(OC)cc(OC)c4)c(NC(C)(C)C)n3nc2C)cc(OC)c1 [Compound 46, (E)-N-(tert-butyl)-6-(3,5-dimethoxyphenyl)-3-(3,5-dimethoxystyryl)-2-methylimidazo[1,2-b][1,2,4]triazin-7-amine]	–	–	–
510	0.04	601	Cc1nn2c(/N=C/c3ccccc3)c(-c3ccccc3)nc2nc1/C=C/c1ccccc1 [Compound 58, (E)-N-(2-methyl-6-phenyl-3-((E)-styryl)imidazo[1,2-b][1,2,4]triazin-7-yl)-1-phenylmethanimine]	–	–	–
526	0.04	601	Cc1nn2c(/N=C/c3ccc4ccccc4c3)c(-c3ccc4ccccc4c3)nc2nc1/C=C/c1ccc2ccccc2c1 [Compound 59, (E)-N-(2-methyl-6-(naphthalen-2-yl)-3-((E)-2-(naphthalen-2-yl)vinyl)imidazo[1,2-b][1,2,4]triazin-7-yl)-1-(naphthalen-2-yl)methanimine]	–	–	–
506	0.10	589	COc1cc(/C=C/c2nc3nc(-c4cc(OC)cc(OC)c4)c(/N=C/c4cc(OC)cc(OC)c4)n3nc2C)cc(OC)c1 [Compound 62, (E)-1-(3,5-dimethoxyphenyl)-N-(6-(3,5-dimethoxyphenyl)-3-((E)-3,5-dimethoxystyryl)-2-methylimidazo[1,2-b][1,2,4]triazin-7-yl)methanimine]	–	–	–
572	0.19	615	Cc1nn2c(/N=C/c3cccs3)c(-c3cccs3)nc2nc1/C=C/c1cccs1 [Compound 63, (E)-N-(2-methyl-6-(thiophen-2-yl)-3-((E)-2-(thiophen-2-yl)vinyl)imidazo[1,2-b][1,2,4]triazin-7-yl)-1-(thiophen-2-yl)methanimine]	–	–	–
533	0.10	611	COc1cc(/C=C/c2nc3nc(-c4cc(OC)c(OC)c(OC)c4)c(/N=C/c4cc(OC)c(OC)c(OC)c4)n3nc2C)cc(OC)c1OC [Compound 64, (E)-N-(2-methyl-6-(3,4,5-trimethoxyphenyl)-3-((E)-3,4,5-trimethoxystyryl)imidazo[1,2-b][1,2,4]triazin-7-yl)-1-(3,4,5-trimethoxyphenyl)methanimine]	–	–	–
529	0.34	646	Cc1nn2c(NCc3ccccc3)c(-c3ccc4ccccc4c3)nc2nc1/C=C/c1ccc2ccccc2c1 [Compound 75, (E)-N-benzyl-2-methyl-6-(naphthalen-2-yl)-3-(2-(naphthalen-2-yl)vinyl)imidazo[1,2-b][1,2,4]triazin-7-amine]	–	–	–
499	0.24	639	COc1ccc(/C=C/c2nc3nc(-c4ccc(OC)cc4)c(NCc4ccccc4)n3nc2C)cc1 [Compound 76, (E)-N-benzyl-6-(4-methoxyphenyl)-3-(4-methoxystyryl)-2-methylimidazo[1,2-b][1,2,4]triazin-7-amine]	–	–	–
343	0.28	474	Cc1cc(C)cc(-c2nc3ccccn3c2N)c1 [Compound 101, 2-(3,5-dimethylphenyl)imidazo[1,2-a]pyridin-3-amine]	–	–	–
499	0.25	604	(E)-2,3,4-trimethoxy-9-methyl-5-(3,4,5-trimethoxyphenyl)-10-(3,4,5-trimethoxystyryl)-[1,2,4]triazino[3′, 2′: 2,3]imidazo[4,5-c]isoquinolines [Compound 80]	–	–	–

Further lines, the compound ahead of its results:

Compound	λex [1] [nm]	Quantum Yield [1]	λem [1] [nm]	Quantum Yield [2]	emission maxima [2] [nm]	excitation maxima [2] [nm]
Cc1nn2c(NC(C)(C)C)c(-c3ccc([N+](=O)[O-])cc3)nc2nc1/C=C/c1ccc([N+](=O)[O-])cc1 [Compound 45, (E)-N-(tert-butyl)-2-methyl-6-(4-nitrophenyl)-3-(4-nitrostyryl)imidazo[1,2-b][1,2,4]triazin-7-amine]	505	0.11	655	–	–	–
Cc1nn2c(NC(C)(C)C)c(-c3cccs3)nc2nc1/C=C/c1cccs1 [Compound 47, (E)-N-(tert-butyl)-2-methyl-6-(thiophen-2-yl)-3-(2-(thiophen-2-yl)vinyl)imidazo[1,2-b][1,2,4]triazin-7-amine]	513	0.33	647	–	–	–
COc1cc(/C=C/c2nc3nc(-c4cc(OC)c(OC)c(OC)c4)c(NC(C)(C)C)n3nc2C)cc(OC)c1OC [Compound 48, (E)-N-(tert-butyl)-2-methyl-6-(3,4,5-trimethoxyphenyl)-3-(3,4,5-trimethoxystyryl)imidazo[1,2-b][1,2,4]triazin-7-amine]	506	0.28	633	–	–	–
CCN(CC)c1ccc(/C=C/c2nc3nc(-c4ccc(N(CC)CC)cc4)c(NC(C)(C)C)n3nc2C)cc1 [Compound 49, (E)-N-(tert-butyl)-6-(4-(diethylamino)phenyl)-3-(4-(diethylamino)styryl)-2-methylimidazo[1,2-b][1,2,4]triazin-7-amine]	566	0.45	653	–	–	–
COc1ccc(/C=C/c2nc3nc(-c4ccc(OC)cc4)c(/N=C/c4ccc(OC)cc4)n3nc2C)cc1 [Compound 60, (E)-1-(4-methoxyphenyl)-N-(6-(4-methoxyphenyl)-3-((E)-4-methoxystyryl)-2-methylimidazo[1,2-b][1,2,4]triazin-7-yl)methanimine]	563	0.19	609	–	–	–
Cc1nn2c(NCc3ccccc3)c(-c3ccccc3)nc2nc1/C=C/c1ccccc1 [Compound 74, (E)-N-benzyl-2-methyl-6-phenyl-3-styrylimidazo[1,2-b][1,2,4]triazin-7-amine]	498	0.24	636	–	–	–
COc1cc(OC)cc(-c2nc3cccnn3c2N)c1 [Compound lot, 2-(3,5-dimethoxyphenyl)imidazo[1,2-b]pyridazin-3-amine]	407	0.02	546	–	–	–
(E)-5-(3,5-dimethoxyphenyl)-10-(3,5-dimethoxystyryl)-2,4-dimethoxy-9-methyl-[1,2,4]triazino[3′, 2′: 2,3]imidazo[4,5-c]isoquinolines [Compound 79]	498	0.18	608	–	–	–

Source: US20260071117A1, “FUNABLE FLUORESCENT COMPOUNDS AND USES THEREOF” (Arizona Board of Regents on Behalf of the University of …, priority 2021, published 2026)
